Laboratory results published in BindingDB's records for doi:10.1111/cbdd.12787 (Shandong University, 2016).

Experiments:
Assay in all cases: In vitro HDACs Inhibition Fluorescence Assay
Histone deacetylase 1 = Histone deacetylase 1 (Homo sapiens, UniProt Q13547)
Procedure: (§1) Afterincubation at 37 °C for 10 min, 40 μL of fluorogenic substrate (Boc-Lys(Ac)-AMC for HeLa nuclear extracts; Ac-Leu- GlyLyS(Ac)-AMC for HDAC1, HDAC6, and HDAC11; Ac-Leu-GlyLyS(Tfa)-AMC for HDAC4 and HDAC8) was added, and then, the mixture was incubated at 37 °C for 30 min. The mixture was stopped by addition of 100 μL of developer containing trypsin and TSA afterward. Over the next incubation at 37 °C for 20 min, fluorescence intensity was measured using a microplate reader at excitation and emission wavelengths of 390 and 460 nm, respectively.

Histone deacetylase 11 = target: T1, Histone deacetylase 11 (Homo sapiens, UniProt Q96DB2)
T1 sequence (Q96DB2 whole entry): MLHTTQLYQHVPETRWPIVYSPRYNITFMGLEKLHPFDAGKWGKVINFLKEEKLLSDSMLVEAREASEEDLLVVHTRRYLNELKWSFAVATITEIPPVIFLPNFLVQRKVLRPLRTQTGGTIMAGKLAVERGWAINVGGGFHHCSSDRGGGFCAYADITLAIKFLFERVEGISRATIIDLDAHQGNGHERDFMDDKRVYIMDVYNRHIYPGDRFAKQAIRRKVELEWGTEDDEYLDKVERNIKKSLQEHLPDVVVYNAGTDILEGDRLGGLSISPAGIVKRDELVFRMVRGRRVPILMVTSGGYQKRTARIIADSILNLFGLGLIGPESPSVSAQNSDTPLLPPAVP
Procedure: as §1

Histone deacetylase 8 = target: T2, Histone deacetylase 8 (Homo sapiens, UniProt Q9BY41)
T2 sequence (Q9BY41 whole entry): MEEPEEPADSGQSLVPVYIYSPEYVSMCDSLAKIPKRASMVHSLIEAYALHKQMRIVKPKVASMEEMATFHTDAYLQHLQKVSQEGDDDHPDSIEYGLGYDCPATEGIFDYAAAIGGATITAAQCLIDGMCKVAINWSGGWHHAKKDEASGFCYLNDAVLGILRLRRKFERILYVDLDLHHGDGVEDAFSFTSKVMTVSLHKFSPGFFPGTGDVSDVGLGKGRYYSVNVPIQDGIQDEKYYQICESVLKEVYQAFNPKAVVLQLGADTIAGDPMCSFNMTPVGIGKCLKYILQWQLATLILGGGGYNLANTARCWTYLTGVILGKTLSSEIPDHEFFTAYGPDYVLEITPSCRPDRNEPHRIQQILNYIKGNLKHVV
Procedure: as §1

Histone deacetylase 4 = Histone deacetylase 4 (Homo sapiens, UniProt P56524)
Sequence of Histone deacetylase 4 (P56524 whole entry): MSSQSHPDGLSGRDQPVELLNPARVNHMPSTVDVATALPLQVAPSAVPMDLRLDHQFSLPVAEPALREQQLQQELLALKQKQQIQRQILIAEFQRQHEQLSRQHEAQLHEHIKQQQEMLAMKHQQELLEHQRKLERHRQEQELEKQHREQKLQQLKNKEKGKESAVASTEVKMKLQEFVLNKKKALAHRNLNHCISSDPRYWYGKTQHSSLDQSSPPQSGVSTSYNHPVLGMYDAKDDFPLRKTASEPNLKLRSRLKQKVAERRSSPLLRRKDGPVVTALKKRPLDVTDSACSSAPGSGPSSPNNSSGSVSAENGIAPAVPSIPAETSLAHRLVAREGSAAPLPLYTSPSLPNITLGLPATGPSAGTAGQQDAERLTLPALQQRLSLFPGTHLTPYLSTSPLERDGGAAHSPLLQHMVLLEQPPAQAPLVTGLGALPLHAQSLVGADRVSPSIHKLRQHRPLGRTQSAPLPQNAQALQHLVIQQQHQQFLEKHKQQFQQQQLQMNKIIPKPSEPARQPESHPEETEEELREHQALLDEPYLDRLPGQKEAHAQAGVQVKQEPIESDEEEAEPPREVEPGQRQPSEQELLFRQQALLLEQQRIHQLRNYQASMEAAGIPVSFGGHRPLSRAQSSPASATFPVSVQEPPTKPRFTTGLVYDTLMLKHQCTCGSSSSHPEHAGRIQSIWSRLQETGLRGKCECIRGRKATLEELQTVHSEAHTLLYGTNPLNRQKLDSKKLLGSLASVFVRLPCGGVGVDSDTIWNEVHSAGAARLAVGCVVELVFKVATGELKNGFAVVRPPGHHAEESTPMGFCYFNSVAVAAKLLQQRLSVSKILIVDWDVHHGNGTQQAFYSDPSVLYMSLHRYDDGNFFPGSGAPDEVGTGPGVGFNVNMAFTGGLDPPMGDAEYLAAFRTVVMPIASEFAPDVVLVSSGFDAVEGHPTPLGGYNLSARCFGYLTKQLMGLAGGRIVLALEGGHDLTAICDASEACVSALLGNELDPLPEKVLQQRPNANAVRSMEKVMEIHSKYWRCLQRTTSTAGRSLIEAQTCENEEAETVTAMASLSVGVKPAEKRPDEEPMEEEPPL
Procedure: as §1

Histone deacetylase 6 = target: T3, Histone deacetylase 6 (Homo sapiens, UniProt Q9UBN7)
T3 sequence (Q9UBN7 whole entry): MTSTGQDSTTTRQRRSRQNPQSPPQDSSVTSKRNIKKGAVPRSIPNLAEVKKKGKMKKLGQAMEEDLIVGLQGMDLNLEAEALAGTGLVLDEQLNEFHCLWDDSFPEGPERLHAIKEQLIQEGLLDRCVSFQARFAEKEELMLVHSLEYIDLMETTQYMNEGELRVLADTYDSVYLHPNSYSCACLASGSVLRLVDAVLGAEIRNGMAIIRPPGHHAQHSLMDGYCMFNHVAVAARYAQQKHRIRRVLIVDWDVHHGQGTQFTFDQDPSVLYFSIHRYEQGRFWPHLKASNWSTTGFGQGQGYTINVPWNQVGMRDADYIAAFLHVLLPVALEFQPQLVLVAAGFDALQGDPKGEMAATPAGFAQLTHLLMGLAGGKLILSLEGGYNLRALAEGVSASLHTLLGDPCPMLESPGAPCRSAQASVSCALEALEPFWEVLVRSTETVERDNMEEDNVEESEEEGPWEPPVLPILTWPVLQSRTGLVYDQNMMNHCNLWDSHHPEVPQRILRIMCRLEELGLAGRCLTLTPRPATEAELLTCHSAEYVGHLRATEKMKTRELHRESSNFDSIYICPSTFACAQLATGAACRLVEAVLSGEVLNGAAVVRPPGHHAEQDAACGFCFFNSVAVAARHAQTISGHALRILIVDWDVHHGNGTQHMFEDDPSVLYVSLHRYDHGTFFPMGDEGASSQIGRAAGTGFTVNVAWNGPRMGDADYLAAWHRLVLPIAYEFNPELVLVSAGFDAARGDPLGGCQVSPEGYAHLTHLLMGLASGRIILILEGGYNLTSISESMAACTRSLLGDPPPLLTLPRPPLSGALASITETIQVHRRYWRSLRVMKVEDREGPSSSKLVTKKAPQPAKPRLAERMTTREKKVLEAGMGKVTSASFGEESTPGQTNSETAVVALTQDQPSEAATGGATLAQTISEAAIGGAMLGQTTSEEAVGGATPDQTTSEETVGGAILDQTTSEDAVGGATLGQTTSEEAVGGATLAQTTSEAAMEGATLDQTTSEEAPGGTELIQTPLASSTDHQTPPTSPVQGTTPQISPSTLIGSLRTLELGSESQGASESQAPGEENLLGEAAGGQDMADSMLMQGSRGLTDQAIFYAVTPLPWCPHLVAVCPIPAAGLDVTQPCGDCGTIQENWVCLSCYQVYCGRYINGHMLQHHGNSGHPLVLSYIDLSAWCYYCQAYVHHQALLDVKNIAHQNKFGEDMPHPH
Procedure: as §1

Sequence of Histone deacetylase 1 (Q13547 whole entry): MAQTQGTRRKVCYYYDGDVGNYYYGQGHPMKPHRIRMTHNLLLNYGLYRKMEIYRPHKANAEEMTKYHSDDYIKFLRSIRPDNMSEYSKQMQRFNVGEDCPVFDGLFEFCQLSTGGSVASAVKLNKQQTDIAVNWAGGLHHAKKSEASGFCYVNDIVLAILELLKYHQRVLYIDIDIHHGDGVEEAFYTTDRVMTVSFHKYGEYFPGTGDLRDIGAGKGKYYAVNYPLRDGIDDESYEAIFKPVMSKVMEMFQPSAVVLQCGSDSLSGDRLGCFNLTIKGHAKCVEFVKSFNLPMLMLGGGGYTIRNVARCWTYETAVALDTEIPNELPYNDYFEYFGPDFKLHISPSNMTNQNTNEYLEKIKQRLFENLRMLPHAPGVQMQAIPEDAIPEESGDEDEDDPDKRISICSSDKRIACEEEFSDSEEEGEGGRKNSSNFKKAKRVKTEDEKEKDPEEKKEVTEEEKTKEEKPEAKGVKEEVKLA

IC50 (Histone deacetylase 1) [nM]	IC50 (Histone deacetylase 11) [nM]	IC50 (Histone deacetylase 8) [nM]	IC50 (Histone deacetylase 4) [nM]	IC50 (Histone deacetylase 6) [nM]	SMILES
93	3850	659	23000	80	O=C(/C=C/c1cccc(S(=O)(=O)N[C@H](C(=O)Nc2cccc3ccccc23)c2ccccc2)c1)NO [(S,E)-N-hydroxy-3-(3-(N-(2-(naphthalen-1-ylamino)-2-oxo-1-phenylethyl)sulfamoyl)phenyl)acrylamide (10s)]
			9850		O=C(/C=C/c1cccc(S(=O)(=O)Nc2ccccc2)c1)NO [Belinostat]
